In patent US9212204B2, “Treatment of rett syndrome using glycyl-L-2-methylprolyl-L-glutamic acid” (priority 2011, dated 2015):
Non-standard residues stand in square brackets, D forms with d. Residues, ends and D or L forms follow the SMILES beside them. αMeP = C[C@@]1(C(=O)O)CCCN1

Tests used:
[1] = tested on: 12-month old male Wistar rats; test: Morris water maze test, spatial reference memory; format: in vivo, rat
Method: We used male Wistar rats 12, 8 or 4 months of age.
The Morris water maze test was conducted using a black plastic pool filled to a depth of 25 cm with water colored black with a non-toxic dye. […] The platform remained in that position though the training.
The experiment used extra-maze cues (i.e. objects in the room surrounding the pool) that the rats could use to navigate to the platform. Distinctive posters or paintings were hung on the walls. Furniture in the room was not moved during the testing period. The placement of the pool allowed the experimenter an easy access to it from all sides. The pool was emptied and refilled daily during testing, with water at 25° C.+/−2° C.
The furthermost point in the pool (relative to the position of the experimenter) was designated as “north”, and the other compass points “east”, “south” and “west” were the right-most, bottom and left-most points of the pool respectively. These points were marked with tape on the outside of the pool.
Rats in each group were trained to swim to the submerged platform. The rats received six 60-second trials per day for four consecutive days. A trial began by placing the rat into the water facing the wall of the pool, at one of four start locations (north, south, east, west). […]

[2] = tested on: Tbx1 heterozygous, Cntnap2 knockout, Slc9a6 knockout and fmr1 knockout mice; test: Genetic mouse models of ASD and Fragile X Syndrome; format: in vivo; conditions: 20 mg/kg/day i.p.
Method: Effects of G-2-MePE are further tested in the following genetic models of ASD: the Tbx1 heterozygous mouse, the Cntnap2 knockout mouse and the Sic9a6 knockout mouse. G-2-MePE is also tested in the fmr1 knockout mouse model of Fragile X Syndrome.
Animals in each of the above models are generated in accordance with the methodology described in the cited literature. Wild type equivalents are also obtained for each genetic model. Animals in each model are divided into three groups (n=10 to n=20): placebo treated wild type mice, mutant G-2-MePE-treated group and mutant placebo-treated control group.
The treatments are administered intraperitoneally: placebo (saline) or 20 mg/kg/day of G-2-MePE.

[3] = tested on: subjects with an Autism Spectrum Disorder; test: Placebo-controlled crossover study in subjects with an Autism Spectrum Disorder; format: in vivo, human
Text: To determine whether G-2-MePE can treat symptoms of ASD, we carry out a study in human beings with ASD. Twenty subjects with an Autism Spectrum Disorder are recruited. Subjects are male and aged between 16 and 65 years (Mean=18.1 SD=3.4). All subjects have an IQ >60 and strict DSM-IV-TR diagnosis of Autistic Disorder or Asperger Disorder, Subjects also meet criteria for an Autism Spectrum Disorder according the ADI-R and ADOS-G instruments, and fulfill the proposed DSM-V criteria for and Autism Spectrum Disorder. Subjects are instructed that concomitant medications are to be stable for at least six weeks prior to study. Subjects receiving medication to treat signs of inattention are tested in the morning and instructed to take their medication in the afternoon. Subjects better treated with atypical anti-psychotic medications indicated for autism are excluded. Subjects are screened for known genetic disorders including and those with Fragile X Syndrome or tuberous sclerosis excluded. Subjects with uncontrolled epilepsy are excluded.
The study is a double blind placebo-controlled crossover study with three phases. Subjects enter each phase of the crossover in a randomized order. In the test phases, subjects receive either placebo, 10 mg/kg T.I.D oral G-2-MePE for five days, or 30 mg/kg T.I.D. oral G-2-MePE. Each phase of the crossover is separated by a washout period of fourteen days.
Subjects are tested at baseline using the following instruments: Wechsler IQ, Abberant Behavior Checklist Community Edition (ABC), Vinelands, Yale-Brown Obsessive Compulsive Scale (YBOCS) compulsion subscale, Social Responsiveness Scale (SRS), Clinical Global Impression of Severity (CGI-S) and their carers complete the Caregiver Strain Questionnaire (CSQ).
Subjects are administered two tasks—the Reading the Mind in the Eyes Test—Revised (RMET) and an Eye Tracking (ET) task, as well as Clinical Global Impression of Improvement (CGI-1). Tasks commence two hours following administration of placebo or either dose of G-2-MePE. The RMET is a computer based task that assesses one's ability to read emotions from the eyes of subtle affective facial expressions and is a widely used test of emotion recognition in patients with autism (2001). Importantly, the RMET is capable of detecting improvement with even a single dose of a pharmacological agent (Guastella et al., 2010). Eye tracking issues are characteristic of patients with autism who spend less time looking at the eyes of photographs of human faces. Again, a single administration of a pharmacologic intervention can ameliorate eye tracking deficits in autism (Andari et al, 2010).
Adverse events are also recorded using standard safety measures.
Statistically, the effect of treatment with G-2-MePE is analysed by conducting a repeated analysis of covariance (ANCOVA) on the effect of treatment on change from baseline scores.

Question: `C[C@@]1(C(=O)N[C@@H](CCC(=O)O)C(=O)O)CCCN1C(=O)CN` [Example G-2-MePE, Glycyl-L-2-methylprolyl-L-glutamic acid] (H-Gly-[αMeP]-Glu-OH) was tested. Which “time needed to reach the platform, retention phase” value ([1]; high (4.8 mg/day) or low (0.96 mg/day) dose, vs saline-treated controls, 12 month old rats) did it give?
Answer: The value was “decrease in the time needed to reach the platform”.

Question: And the “retention of the original water maze task” value ([1]; high dose 4.8 mg/day s.c. minipump over 3 weeks, 4-week delay, vs 3-week vehicle)?
Answer: The value was “improved the retention”.

Question: What about the “measures associated with the ASD phenotype” value [2] of the same compound?
Answer: The value was “significantly improves”.

Question: And the “percent correct responses on the RMET” value ([3]; 30 mg/kg T.I.D. oral)?
Answer: Its value is “increases”.

Question: What about the “Serious Adverse Events” value ([3]; 10 or 30 mg/kg T.I.D. oral) of the same compound?
Answer: Its value is “No Serious Adverse Events”.

Question: And the adverse events ([3]; 10 or 30 mg/kg T.I.D. oral, vs placebo)?
Answer: Its adverse events is “no more adverse events than were present during treatment with placebo”.

Question: What about the tolerability ([3]; ASD population) of the same compound?
Answer: Its tolerability is “well tolerated”.

Question: And the “performance of the RMET test” value ([3]; overall treatment effect)?
Answer: Its value is “significant overall improvement”.

Question: What about the “time spent looking at the eye region in the ET test” value ([3]; overall treatment effect) of the same compound?
Answer: Its value is “significant overall improvement”.
